This is an account of results in ChEMBL document CHEMBL1201862, “PubChem BioAssay data set” (2004).

Assay type in all cases: functional
For experiment [1], the target named is T1, Apoptotic protease-activating factor 1 (Homo sapiens, UniProt O14727).
T1 sequence (O14727 whole entry): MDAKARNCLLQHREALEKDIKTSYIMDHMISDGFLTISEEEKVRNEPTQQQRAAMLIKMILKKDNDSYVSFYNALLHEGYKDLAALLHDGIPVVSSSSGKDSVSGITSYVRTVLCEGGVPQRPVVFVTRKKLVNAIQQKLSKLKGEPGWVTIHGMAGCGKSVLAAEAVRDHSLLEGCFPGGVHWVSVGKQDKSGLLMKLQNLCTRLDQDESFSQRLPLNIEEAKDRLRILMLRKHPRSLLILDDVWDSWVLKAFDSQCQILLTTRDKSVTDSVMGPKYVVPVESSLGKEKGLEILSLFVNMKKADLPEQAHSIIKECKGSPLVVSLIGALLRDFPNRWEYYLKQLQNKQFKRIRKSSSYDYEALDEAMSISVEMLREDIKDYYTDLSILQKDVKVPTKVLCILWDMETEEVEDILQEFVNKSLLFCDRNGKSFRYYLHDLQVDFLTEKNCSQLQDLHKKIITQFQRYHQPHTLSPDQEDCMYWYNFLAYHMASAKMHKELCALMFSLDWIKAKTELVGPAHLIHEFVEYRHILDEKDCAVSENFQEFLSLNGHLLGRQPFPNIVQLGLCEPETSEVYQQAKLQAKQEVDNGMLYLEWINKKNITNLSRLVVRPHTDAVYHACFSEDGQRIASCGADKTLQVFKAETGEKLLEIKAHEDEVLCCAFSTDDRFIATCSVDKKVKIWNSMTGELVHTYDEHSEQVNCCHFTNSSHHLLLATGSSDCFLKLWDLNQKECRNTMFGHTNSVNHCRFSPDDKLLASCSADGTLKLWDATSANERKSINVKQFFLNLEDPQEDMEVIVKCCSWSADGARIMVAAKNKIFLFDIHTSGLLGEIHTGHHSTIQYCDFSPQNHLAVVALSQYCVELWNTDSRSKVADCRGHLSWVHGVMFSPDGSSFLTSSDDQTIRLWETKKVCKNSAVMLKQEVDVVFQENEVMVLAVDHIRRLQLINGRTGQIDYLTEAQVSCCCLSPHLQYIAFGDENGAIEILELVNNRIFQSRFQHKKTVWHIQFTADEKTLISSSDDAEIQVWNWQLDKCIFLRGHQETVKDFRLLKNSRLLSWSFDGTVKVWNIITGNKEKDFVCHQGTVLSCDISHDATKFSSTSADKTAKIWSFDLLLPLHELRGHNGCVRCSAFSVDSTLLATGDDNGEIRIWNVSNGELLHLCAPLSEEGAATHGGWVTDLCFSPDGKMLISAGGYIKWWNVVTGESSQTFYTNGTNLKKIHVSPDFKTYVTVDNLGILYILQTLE
Put plainly: SAR analysis of small molecule inhibitors of Apaf-1 in a Fluorescent assay. Particulars: read-out: IC50_Mean.

Experiment [2] addresses ALK tyrosine kinase receptor (Homo sapiens, UniProt Q9UM73).
Experiment [3] deals with Tyrosine-protein kinase Lck (Homo sapiens, UniProt P06239).
Experiment [4] concerns the target Tyrosine-protein kinase BTK (Homo sapiens, UniProt Q06187).
Experiment [5] concerns the target T2, Serine/threonine-protein kinase TAO1 (Homo sapiens, UniProt Q7L7X3).
T2 sequence (Q7L7X3 whole entry): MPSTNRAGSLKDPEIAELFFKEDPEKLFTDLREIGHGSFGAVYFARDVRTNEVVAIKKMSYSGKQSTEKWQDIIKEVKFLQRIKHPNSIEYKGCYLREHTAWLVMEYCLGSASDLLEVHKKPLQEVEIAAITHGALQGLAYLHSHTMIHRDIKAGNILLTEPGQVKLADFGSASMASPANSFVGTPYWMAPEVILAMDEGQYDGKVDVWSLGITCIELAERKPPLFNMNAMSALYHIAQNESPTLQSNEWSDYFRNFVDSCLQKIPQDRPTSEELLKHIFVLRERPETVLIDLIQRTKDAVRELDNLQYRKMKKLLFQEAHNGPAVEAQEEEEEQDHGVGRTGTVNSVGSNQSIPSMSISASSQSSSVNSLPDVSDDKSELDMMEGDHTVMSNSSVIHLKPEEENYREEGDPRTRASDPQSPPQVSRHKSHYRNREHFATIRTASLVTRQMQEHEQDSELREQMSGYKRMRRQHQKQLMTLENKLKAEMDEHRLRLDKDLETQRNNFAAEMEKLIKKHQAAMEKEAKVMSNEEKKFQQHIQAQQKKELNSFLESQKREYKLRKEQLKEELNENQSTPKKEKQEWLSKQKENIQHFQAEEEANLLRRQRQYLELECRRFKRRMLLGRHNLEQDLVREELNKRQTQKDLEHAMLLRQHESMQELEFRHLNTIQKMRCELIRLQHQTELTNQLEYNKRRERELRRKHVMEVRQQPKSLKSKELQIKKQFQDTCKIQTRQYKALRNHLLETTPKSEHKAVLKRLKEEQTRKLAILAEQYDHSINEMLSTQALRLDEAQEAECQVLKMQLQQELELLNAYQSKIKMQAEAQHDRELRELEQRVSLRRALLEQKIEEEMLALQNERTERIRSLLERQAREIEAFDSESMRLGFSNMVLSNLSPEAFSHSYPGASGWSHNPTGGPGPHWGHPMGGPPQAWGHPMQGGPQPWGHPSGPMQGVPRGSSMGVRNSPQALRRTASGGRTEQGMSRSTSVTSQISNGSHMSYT

The target in another experiment is Focal adhesion kinase 1 (Homo sapiens, UniProt Q05397).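 Further: measured as one member of a kinome panel.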
Sequence of Focal adhesion kinase 1 (Q05397 whole entry): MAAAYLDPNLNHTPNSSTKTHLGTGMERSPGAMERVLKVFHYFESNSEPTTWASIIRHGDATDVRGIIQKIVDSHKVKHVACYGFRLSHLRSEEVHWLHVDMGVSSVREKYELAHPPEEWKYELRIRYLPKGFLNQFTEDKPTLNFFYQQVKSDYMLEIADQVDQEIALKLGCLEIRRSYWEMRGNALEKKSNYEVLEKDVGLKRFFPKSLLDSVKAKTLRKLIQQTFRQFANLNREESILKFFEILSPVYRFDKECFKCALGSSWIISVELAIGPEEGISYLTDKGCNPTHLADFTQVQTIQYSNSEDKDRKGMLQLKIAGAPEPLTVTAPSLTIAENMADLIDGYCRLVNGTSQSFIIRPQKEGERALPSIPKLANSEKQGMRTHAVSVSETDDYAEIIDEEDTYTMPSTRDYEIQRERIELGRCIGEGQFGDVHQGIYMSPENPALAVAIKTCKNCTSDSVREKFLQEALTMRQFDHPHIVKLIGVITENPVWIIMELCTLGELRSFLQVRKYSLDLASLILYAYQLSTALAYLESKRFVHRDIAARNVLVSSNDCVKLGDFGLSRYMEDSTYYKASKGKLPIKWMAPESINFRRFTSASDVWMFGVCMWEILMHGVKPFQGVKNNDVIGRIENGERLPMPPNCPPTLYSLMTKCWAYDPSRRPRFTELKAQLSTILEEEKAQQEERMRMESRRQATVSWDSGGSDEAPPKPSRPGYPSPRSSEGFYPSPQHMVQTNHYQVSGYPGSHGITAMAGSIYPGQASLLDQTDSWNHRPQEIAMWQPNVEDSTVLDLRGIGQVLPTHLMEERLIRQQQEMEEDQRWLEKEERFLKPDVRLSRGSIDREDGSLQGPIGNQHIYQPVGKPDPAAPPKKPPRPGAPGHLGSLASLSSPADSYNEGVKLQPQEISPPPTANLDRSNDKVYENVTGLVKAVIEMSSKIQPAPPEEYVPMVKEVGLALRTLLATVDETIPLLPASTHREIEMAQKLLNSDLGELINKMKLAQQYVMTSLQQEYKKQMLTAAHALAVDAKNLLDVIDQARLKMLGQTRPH
The target in experiment [6] is Tyrosine-protein kinase Fyn (Homo sapiens, UniProt P06241).
Sequence of Tyrosine-protein kinase Fyn (P06241 whole entry): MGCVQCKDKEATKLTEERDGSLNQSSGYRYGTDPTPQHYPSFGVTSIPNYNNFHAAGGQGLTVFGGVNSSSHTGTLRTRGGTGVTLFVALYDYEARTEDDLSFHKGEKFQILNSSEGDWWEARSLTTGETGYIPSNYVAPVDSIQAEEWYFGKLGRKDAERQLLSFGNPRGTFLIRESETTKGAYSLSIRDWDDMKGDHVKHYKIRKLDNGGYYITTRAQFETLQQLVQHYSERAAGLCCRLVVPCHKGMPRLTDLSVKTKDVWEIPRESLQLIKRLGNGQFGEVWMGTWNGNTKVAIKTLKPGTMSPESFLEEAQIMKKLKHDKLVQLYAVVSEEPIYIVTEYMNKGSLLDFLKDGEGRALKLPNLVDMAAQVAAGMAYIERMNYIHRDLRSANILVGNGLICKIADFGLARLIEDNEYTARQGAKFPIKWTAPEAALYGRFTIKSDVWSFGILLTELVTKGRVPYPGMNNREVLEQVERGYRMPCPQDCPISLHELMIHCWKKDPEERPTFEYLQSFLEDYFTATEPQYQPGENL
The target in experiment [7] is Calcium/calmodulin-dependent protein kinase type II subunit alpha (Homo sapiens, UniProt Q9UQM7). In words: Navigating the Kinome. Panel member name: CAMK2A.
Sequence of Calcium/calmodulin-dependent protein kinase type II subunit alpha (Q9UQM7 whole entry): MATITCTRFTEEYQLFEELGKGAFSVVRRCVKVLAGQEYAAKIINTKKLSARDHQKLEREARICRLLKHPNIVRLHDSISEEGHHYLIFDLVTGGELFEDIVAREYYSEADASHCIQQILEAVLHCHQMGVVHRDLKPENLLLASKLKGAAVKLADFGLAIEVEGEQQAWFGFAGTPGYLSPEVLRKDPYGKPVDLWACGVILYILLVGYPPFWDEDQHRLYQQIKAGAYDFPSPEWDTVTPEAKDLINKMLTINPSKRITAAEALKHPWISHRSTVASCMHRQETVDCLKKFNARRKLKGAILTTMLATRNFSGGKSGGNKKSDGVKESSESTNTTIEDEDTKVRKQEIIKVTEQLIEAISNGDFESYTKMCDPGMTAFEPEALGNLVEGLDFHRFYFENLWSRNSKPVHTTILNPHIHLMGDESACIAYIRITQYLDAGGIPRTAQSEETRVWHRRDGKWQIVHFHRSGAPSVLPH
Experiment [8] has as its target Mitogen-activated protein kinase 14 (Homo sapiens, UniProt Q16539).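 Further: part of a kinome-wide panel, MAPK14 entry.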

Activity calls are given as the source filed them.

Sequence of Tyrosine-protein kinase BTK (Q06187 whole entry): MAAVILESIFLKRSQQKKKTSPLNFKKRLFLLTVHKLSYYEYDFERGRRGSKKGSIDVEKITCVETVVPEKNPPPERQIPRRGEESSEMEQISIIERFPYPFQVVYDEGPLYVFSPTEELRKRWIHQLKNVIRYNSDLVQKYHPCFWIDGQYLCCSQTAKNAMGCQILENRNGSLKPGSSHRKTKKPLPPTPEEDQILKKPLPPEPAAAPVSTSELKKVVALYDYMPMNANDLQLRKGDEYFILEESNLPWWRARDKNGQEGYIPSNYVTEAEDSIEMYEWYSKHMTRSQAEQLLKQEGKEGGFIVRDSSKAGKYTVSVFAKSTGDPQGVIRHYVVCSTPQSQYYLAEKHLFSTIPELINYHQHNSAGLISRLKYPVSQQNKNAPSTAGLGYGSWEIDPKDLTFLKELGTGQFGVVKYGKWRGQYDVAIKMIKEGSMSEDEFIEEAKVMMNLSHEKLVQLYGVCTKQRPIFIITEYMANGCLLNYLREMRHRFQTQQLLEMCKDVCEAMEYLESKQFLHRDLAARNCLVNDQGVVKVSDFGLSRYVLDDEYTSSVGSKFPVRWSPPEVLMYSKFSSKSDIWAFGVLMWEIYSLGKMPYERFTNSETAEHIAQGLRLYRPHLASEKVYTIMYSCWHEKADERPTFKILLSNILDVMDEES
Sequence of ALK tyrosine kinase receptor (Q9UM73 whole entry): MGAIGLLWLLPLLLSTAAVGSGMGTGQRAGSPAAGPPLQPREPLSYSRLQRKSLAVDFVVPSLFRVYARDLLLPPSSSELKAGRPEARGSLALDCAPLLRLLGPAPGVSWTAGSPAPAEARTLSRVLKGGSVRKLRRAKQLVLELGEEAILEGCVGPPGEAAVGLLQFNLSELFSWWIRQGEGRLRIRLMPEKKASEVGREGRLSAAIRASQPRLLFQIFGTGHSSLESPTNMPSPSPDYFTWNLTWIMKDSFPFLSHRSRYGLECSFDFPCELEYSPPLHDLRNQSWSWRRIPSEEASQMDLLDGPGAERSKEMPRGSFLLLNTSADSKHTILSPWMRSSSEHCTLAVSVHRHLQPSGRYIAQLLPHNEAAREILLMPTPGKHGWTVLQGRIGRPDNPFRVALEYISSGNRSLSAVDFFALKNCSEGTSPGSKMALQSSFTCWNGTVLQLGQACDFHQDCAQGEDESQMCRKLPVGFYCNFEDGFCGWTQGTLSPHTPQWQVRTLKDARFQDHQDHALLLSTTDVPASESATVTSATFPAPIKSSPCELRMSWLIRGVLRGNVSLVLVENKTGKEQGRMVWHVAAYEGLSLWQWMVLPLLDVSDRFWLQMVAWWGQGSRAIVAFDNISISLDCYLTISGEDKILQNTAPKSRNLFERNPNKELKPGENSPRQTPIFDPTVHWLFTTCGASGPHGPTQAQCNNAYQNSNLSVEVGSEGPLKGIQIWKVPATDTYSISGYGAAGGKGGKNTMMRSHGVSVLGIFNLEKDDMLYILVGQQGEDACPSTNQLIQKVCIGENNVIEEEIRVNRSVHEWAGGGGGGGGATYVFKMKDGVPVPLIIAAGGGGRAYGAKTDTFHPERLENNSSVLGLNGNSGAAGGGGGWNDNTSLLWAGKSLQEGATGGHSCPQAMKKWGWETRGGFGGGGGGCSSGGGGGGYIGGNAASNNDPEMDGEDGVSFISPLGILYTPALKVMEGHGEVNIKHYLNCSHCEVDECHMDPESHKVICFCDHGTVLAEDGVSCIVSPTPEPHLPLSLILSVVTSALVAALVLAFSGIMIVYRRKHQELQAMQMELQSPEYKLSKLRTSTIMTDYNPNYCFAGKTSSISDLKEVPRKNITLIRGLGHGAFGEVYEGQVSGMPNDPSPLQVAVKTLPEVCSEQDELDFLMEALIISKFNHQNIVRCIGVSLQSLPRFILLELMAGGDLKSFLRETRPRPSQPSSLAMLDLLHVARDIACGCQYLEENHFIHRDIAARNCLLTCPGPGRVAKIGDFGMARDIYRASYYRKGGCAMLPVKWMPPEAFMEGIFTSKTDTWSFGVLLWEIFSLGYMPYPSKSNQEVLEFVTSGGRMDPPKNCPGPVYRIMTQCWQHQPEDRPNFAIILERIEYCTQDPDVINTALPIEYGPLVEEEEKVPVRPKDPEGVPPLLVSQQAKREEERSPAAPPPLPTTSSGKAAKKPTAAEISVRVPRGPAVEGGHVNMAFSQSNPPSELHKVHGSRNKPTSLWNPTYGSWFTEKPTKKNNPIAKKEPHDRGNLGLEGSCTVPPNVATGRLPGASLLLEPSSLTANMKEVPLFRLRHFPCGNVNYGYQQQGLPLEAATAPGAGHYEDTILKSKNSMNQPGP
Sequence of Mitogen-activated protein kinase 14 (Q16539 whole entry): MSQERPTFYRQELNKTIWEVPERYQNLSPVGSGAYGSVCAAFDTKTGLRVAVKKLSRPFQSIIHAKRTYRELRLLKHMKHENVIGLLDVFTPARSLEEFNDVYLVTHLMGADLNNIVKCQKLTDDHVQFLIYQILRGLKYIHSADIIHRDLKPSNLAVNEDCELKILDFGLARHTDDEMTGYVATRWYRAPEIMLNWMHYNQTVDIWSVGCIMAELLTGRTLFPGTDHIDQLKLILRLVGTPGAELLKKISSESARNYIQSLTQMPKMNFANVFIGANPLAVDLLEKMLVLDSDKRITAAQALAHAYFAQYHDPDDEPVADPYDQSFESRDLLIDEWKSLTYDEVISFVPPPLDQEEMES

For `Cn1cc(C(CC(=O)c2ccc(C3CCCCC3)cc2)C(=O)O)c2ccccc21` (centres undefined), in experiment [1], the IC50 was 69.6 µM (active).

Take `CC(C)CC(CO)NC(=O)c1cccc(-n2nc(C(C)(C)C)cc2NC(=O)Nc2cccc3ccccc23)c1` (centres undefined): the Ki (in experiment [2]; in [3]; in experiment [4]; in experiment [5]; at Focal adhesion kinase 1; in experiment [6]) was > 6.31 µM (inactive) throughout. Moreover, the Ki in experiment [7] was > 7.94 µM (inactive); in experiment [8], 0.631 µM (active).

By Ki is commonly meant the dissociation constant of the complex between target and ligand, obtained from inhibition or displacement.
